Experimental findings from patent US8952150B2, “Prostaglandin transporter inhibitors and uses thereof” (Albert Einstein College of Medicine of Yeshiva University, priority 2009, dated 2015) are described below.

The target in one experiment is rat PGT (Rattus norvegicus (Rat), UniProt Q00910). Kind of experiment: [3H]PGE2 uptake inhibition in MDCK cells stably transfected with rat PGT (percent inhibition and IC50). Format: cell-based. Particulars: for Inh (% of Ctl) 0.5 μM: 0.5 μM compound; for Inh (% of Ctl) 0.5 μM / Inh (% of Ctl) 0.1 μM / Inh (% of Ctl) 1 μM: inhibition of [3H]PGE2 uptake; for IC50: [3H]PGE2 uptake, MDCK cells stably transfected with rat PGT; for Inh (% of Ctl) 0.1 μM: 0.1 μM compound; for Inh (% of Ctl) 1 μM: 1 μM compound. A digest of the protocol:
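Rat PGT-transfected MDCK cells, on day 4 after seeding, took up [3H]PGE2 in Waymouth buffer at room temperature, with compound (EtOH stock diluted in buffer) added immediately before tracer. Intracellular radioactivity counted after lysis; percent inhibition versus vehicle, IC50 by fitting y=m1−m1*(m0/(m2+m0)).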

Another experiment relates to full-thickness wounds. Nature of the experiment: Wound healing: topical application to full-thickness wounds on the back of mice. It is filed as in vivo. The note with it: 5 mm full-thickness wounds. On the procedure:
FIG. 1A-1B. Prostaglandin transporter (PGT) inhibitors accelerate wound healing. […] B. Averaged wound areas of 4 mice, each of them had 2 wounds and received topically applied vehicle Veh1 (2% DMSO+2% cremophor in water) on one wound and T26A on the other. On the wounds of a separate group of 4 mice, vehicle Veh2 (2% EtOH) was applied to one wound and 200 μM PGE2 was applied to the other.
Studies were conducted using compound T26A (Table 1). Two full-thickness wounds with diameter of 5 mm were created on the back of mice symmetrically under the shoulder blades. 50 μL vehicle (2% DMSO+2% cremophor in water) was applied to one wound (FIG. 1A, top panel), and that of 2 mM T26A was applied to the other (FIG. 1A, bottom panel), immediately after surgery and every other day afterwards. […] On the wounds of a separate group of 4 mice, vehicle Veh2 (2% EtOH, yellow) was applied to one wound and 200 μM PGE2 (green) was applied to the other. Results were statistically significant (p<0.05, T26A vs. vehicle).

With `[N-]=[N+]=NCCOCCOCCNC(=O)c1ccc(Nc2nc(NCCOCCOCCNC(=O)c3ccccc3)nc(Nc3ccc(O)cc3)n2)cc1` [T26A, reference compound], at rat PGT, the “Inh (% of Ctl) 0.5 μM” value is recorded as 72.65 % of Ctl and half-maximal inhibition (IC50) was put at 378 nM. For the same compound, in the experiment on full-thickness wounds (2 mM T26A applied topically), the “vascularization and blood flow in the wound” value is “increased vascularization and blood flow in the wound”. In addition, the “wound healing (wound area)” value in the experiment on full-thickness wounds (50 μL of 2 mM T26A topically immediately after surgery and every other day, 10 day period, vs vehicle (2% DMSO+2% cremophor in water), p<0.05 T26A vs. vehicle) was “accelerates wound healing”.

Regarding `COC(=O)c1cc(Nc2nc(NCCOCCOCCNC(=O)c3ccccc3)nc(Nc3ccc(C(=O)NCc4ccc(F)cc4)cc3)n2)ccc1O` [compound 144], at rat PGT, the “Inh (% of Ctl) 0.1 μM” value is listed as 3.4 % of Ctl, the “Inh (% of Ctl) 0.5 μM” value was 5.8 % of Ctl and the “Inh (% of Ctl) 1 μM” value was 10.8 % of Ctl.

As for `O=C(NCc1ccc(F)cc1)c1ccc(Nc2nc(Nc3ccc(O)cc3)nc(Nc3ccc(O)cc3)n2)cc1` [compound 145], at rat PGT, the “Inh (% of Ctl) 0.1 μM” value is 7.1 % of Ctl, the “Inh (% of Ctl) 0.5 μM” value was 3.1 % of Ctl and the “Inh (% of Ctl) 1 μM” value was 6.9 % of Ctl.

As for `O=C(NCCOCCOCCNc1nc(Nc2ccc(C(=O)NCc3ccc(F)cc3)cc2)nc(Nc2ccc(O)c(C(=O)O)c2)n1)c1ccccc1` [compound 146], at rat PGT, the “Inh (% of Ctl) 0.1 μM” value is 28.5 % of Ctl, the “Inh (% of Ctl) 0.5 μM” value is listed as 59.8 % of Ctl, the “Inh (% of Ctl) 1 μM” value is on record as 70.4 % of Ctl and the IC50 is 44.8 nM.

`O=C(NCCOCCNc1nc(Nc2ccc(O)cc2)nc(Nc2ccc(C(=O)NCc3ccc(F)cc3)cc2)n1)c1ccccc1` [compound 147]: at rat PGT, the “Inh (% of Ctl) 0.1 μM” value was 44.5 % of Ctl; the “Inh (% of Ctl) 0.5 μM” value is 70.2 % of Ctl; the “Inh (% of Ctl) 1 μM” value is 79.5 % of Ctl; the midpoint of inhibition, the IC50, lay at 31.7 nM.

As for `O=C(NCc1ccc(F)cc1)c1ccc(Nc2nc(Nc3ccc(O)cc3)nc(Nc3ccc(C(=O)NCc4ccc(F)cc4)cc3)n2)cc1` [compound 148], on rat PGT, the “Inh (% of Ctl) 0.1 μM” value is recorded as 8.4 % of Ctl, the “Inh (% of Ctl) 0.5 μM” value is listed as 12.9 % of Ctl and the “Inh (% of Ctl) 1 μM” value is given as 20.7 % of Ctl.

With `O=C(NCc1ccc(F)cc1)c1ccc(Nc2nc(Nc3ccc(O)cc3)nc(Nc3ccc(CNCc4ccccc4)cc3)n2)cc1` [compound 149], on rat PGT, the “Inh (% of Ctl) 0.1 μM” value is given as 3.8 % of Ctl, the “Inh (% of Ctl) 0.5 μM” value was 9.1 % of Ctl and the “Inh (% of Ctl) 1 μM” value is given as 17.6 % of Ctl.

`O=C(O)c1cccc(Nc2nc(NCCOCCOCCNC(=O)c3ccccc3)nc(Nc3ccc(C(=O)NCc4ccc(F)cc4)cc3)n2)c1` [compound 150]: at rat PGT, the “Inh (% of Ctl) 0.1 μM” value was 4.2 % of Ctl, the “Inh (% of Ctl) 0.5 μM” value is 14.3 % of Ctl and the “Inh (% of Ctl) 1 μM” value was 23.9 % of Ctl.

On to `O=C(NCCOCCOCCNc1nc(NCCOCCOCCNC(=O)c2ccccc2)nc(Nc2ccc(O)cc2)n1)c1ccccc1` [compound 151], for which, on rat PGT, the “Inh (% of Ctl) 0.5 μM” value is 0.7 % of Ctl and the “Inh (% of Ctl) 1 μM” value is recorded as 8.4 % of Ctl.
